The source made the active and inactive calls.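 How the source made its calls: active means fitted half-maximal concentration for a cytotoxic signal drop no higher than ten times the top valid dose tested; inconclusive means flat curve between -70 and -30 percent, or an unreliable fit; inactive means flat within 30 percent, signal rise, or potency beyond limit.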
Test: HeLa cell cytotoxicity, dose response, cytotoxicity control, 24 h, cherry-picked samples (AID 504726);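 further: 0% = DMSO neutral controls and -100% = mitoxantrone positive controls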
Conditions: HeLa viability, CellTiter-Glo ATP luminescence, 24 h; at 35 µM (top of the series)
For `O=C(OCC(=O)N1N=C(c2ccc(Cl)cc2)CC1c1ccco1)c1cccnc1` (stereo unspecified), the activity change, negative = cytotoxicity was -11.7% (inactive). For `Oc1ccc2nnc3c(Br)cnn3c2c1`, the activity change, negative = cytotoxicity was -12.1% (inactive). In the case of `O=S(=O)(NCc1cccnc1)c1ccc(Cl)s1`, the activity change, negative = cytotoxicity is reported as 4.67% (inactive). For `Cc1[nH][nH]c(=O)c1C(c1ccc(-c2ccc(Cl)c(C(=O)O)c2)o1)c1c(C)[nH][nH]c1=O`, the activity change, negative = cytotoxicity was -3.88% (inactive). With `Cn1c(Cl)c(C(=O)Nc2ccc(Cl)cc2)c2ccccc21` the activity change, negative = cytotoxicity was -6.51% (inactive). For `COC(=O)c1sc(C(F)(F)F)c(-c2ccccc2)c1S(=O)(=O)N1CCOCC1`, the activity change, negative = cytotoxicity was -14.2% (inactive). In the case of `Cc1ccc(NC(=S)N/C(=N/S(=O)(=O)c2ccccc2)c2ccccc2)cc1`, the activity change, negative = cytotoxicity is reported as 6.71% (inactive). For `O=C1C=C(c2ccoc2)N2CCC[C@H]2C1`, the activity change, negative = cytotoxicity was -3.65% (inactive). In the case of `CC(=O)NC(C(=O)c1ccccc1)C(=O)c1ccccc1`, the activity change, negative = cytotoxicity is reported as 7.04% (inactive). For `O=C(COc1cccc(F)c1)Nc1nc(-c2cccnc2)cs1`, the activity change, negative = cytotoxicity was -21.4% (inactive). In the case of `Cc1cc(OCC(=O)OC(C)(C)C)c2c3c(c(=O)oc2c1)CCC3`, the activity change, negative = cytotoxicity is reported as 0.477% (inactive). In the case of `CCOC(=O)C1CCCN(c2ccc([N+](=O)[O-])c3nonc23)C1` (stereo unspecified), the activity change, negative = cytotoxicity is reported as -8.2% (inactive). In the case of `CC(C)(C)OC(=O)N1CCC[C@H]1c1nnc(SCc2cccc(Cl)c2)o1`, the activity change, negative = cytotoxicity is reported as -8.06% (inactive). In the case of `NC(=O)C1(N2CCCCC2)CCN(Cc2ccc(Br)cc2)CC1`, the activity change, negative = cytotoxicity is reported as -2.98% (inactive). For `CC(C)CC(=O)Nc1nnc(CSCc2ccc(F)cc2)s1`, the activity change, negative = cytotoxicity was -9.25% (inactive). For `Cc1nc2c(=O)[nH]c(=S)[nH]c2[nH]c1=O`, the activity change, negative = cytotoxicity was 1.86% (inactive). For `CN(C)/C=C1\C=C2C(=O)c3ccccc3N2C1=O`, the activity change, negative = cytotoxicity was -8.99% (inactive). With `Brc1c(CSc2nncc3ccccc23)nc2ccccn12` the activity change, negative = cytotoxicity was -1.12% (inactive). With `O=C(O)C1(c2ccccc2)CCN(S(=O)(=O)c2ccc(Cl)s2)CC1` the activity change, negative = cytotoxicity was -1.76% (inactive). For `CCn1c(=O)c(C(=O)NCCN2CCCCC2)c(O)c2ccccc21`, the activity change, negative = cytotoxicity was 1.6% (inactive). For `CC(C(=O)Nc1ccc(C(=O)O)c(O)c1)N1C(=O)/C(=C\c2ccco2)SC1=S` (stereo unspecified), the activity change, negative = cytotoxicity was -7.47% (inactive). With `COC(=O)C[n+]1cccc2ccccc21` the activity change, negative = cytotoxicity was -6.11% (inactive). For `O=S(=O)(O)c1cc(Cl)cc(N=Nc2ccc(O)cc2O)c1O`, the activity change, negative = cytotoxicity was -12.1% (inactive). In the case of `O=C1/C(=C/c2ccco2)SC(=S)N1c1cccnc1`, the activity change, negative = cytotoxicity is reported as -6.8% (inactive). In the case of `O=C1/C(=C/c2ccco2)Oc2c1ccc(O)c2CN1CCCCC1`, the activity change, negative = cytotoxicity is reported as 4.96% (inactive). With `O=[N+]([O-])c1cc(-n2cnnn2)ccc1N1CCC(Cc2ccccc2)CC1` the activity change, negative = cytotoxicity was -9.35% (inactive). For `CCOC(=O)c1c(/N=C/c2c(O)n(-c3cccc(C)c3)c(=O)[nH]c2=O)sc2c1CCCC2`, the activity change, negative = cytotoxicity was -22.9% (inactive). With `CC(Sc1nc(-c2ccco2)nc2c1c(=O)n(C)c(=O)n2C)C(=O)O` (stereo unspecified) the activity change, negative = cytotoxicity was -11% (inactive). With `COc1cc(NC(=O)c2ccc(CNc3c(N4CCCC4)c(=O)c3=O)cc2)cc(OC)c1OC` the activity change, negative = cytotoxicity was -7.17% (inactive). For `Nc1cc(N)nc(SCC(=O)N2CCCCC2)n1`, the activity change, negative = cytotoxicity was 4.42% (inactive). With `COc1ccc(-c2nc(C(=O)O)cs2)cc1OC` the activity change, negative = cytotoxicity was -5.71% (inactive). With `O=C(Nc1cc(Cl)ccc1-n1cncn1)c1cccs1` the activity change, negative = cytotoxicity was -6.29% (inactive). For `C/C(=N/NC(=O)c1ccncc1)c1cc2ccc(O)cc2oc1=O`, the activity change, negative = cytotoxicity was 3.38% (inactive). In the case of `NC(=S)COc1ccccc1`, the activity change, negative = cytotoxicity is reported as -7.95% (inactive). For `Cn1cc(/C=C2\C(=O)NC(=O)N(c3ccccc3)C2=O)c2ccccc21`, the activity change, negative = cytotoxicity was -26.5% (inactive). With `CCCn1c(SCC(=O)NCc2cccs2)nc2c1c(=O)n(C)c(=O)n2C` the activity change, negative = cytotoxicity was 7.8% (inactive).

Reference: PubChem BioAssay AID504726 (Broad Institute, 2011)
